According to publication PMC10434068, “Discriminating Susceptibility of Xanthine Oxidoreductase Family to Metals” (Microbiology Spectrum, 2023):

Experiments:
[1] = biological target: T1, pCOD (putative CO dehydrogenase; CoxSLM complex) (Rubrivivax gelatinosus, UniProt I0HW74+I0HW75); experiment: in-gel NBT reductase activity, native PAGE of soluble fraction, no riboflavin; format: biochemical; details: NBT 2 mg/mL; 50 mM Tris-HCl pH 7.6; room temperature, dark; no electron donor added; reduction may run through superoxide
T1 construct: gene coxL; native complex in soluble fraction, native PAGE band between 130 and 250 kDa; predicted 126 kDa (CoxL 84, CoxM 27, CoxS 17 kDa); band absent in coxL mutant; with Carbon monoxide dehydrogenase large chain; Carbon monoxide dehydrogenase small chain
T1 sequence (I0HW74 1-781): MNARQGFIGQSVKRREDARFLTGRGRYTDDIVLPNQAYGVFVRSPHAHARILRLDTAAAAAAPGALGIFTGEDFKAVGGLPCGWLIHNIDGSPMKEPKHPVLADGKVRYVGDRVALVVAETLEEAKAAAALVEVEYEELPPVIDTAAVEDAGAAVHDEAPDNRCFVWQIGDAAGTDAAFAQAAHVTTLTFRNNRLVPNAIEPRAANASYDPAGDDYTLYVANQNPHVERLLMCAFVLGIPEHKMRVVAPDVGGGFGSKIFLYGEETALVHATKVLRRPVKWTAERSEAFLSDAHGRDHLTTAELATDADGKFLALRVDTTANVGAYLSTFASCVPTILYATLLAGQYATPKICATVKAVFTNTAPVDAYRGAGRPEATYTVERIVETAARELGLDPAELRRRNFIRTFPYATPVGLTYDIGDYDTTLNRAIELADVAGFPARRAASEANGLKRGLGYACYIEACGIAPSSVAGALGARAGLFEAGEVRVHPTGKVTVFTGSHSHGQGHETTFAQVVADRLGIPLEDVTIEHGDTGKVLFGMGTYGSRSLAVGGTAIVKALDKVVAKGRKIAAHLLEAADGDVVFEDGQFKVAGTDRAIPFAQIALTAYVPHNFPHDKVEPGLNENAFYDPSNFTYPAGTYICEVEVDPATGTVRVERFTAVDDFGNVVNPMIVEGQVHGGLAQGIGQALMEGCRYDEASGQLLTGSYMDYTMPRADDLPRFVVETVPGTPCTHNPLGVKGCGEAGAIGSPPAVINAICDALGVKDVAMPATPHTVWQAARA
T1 sequence (I0HW75 1-265): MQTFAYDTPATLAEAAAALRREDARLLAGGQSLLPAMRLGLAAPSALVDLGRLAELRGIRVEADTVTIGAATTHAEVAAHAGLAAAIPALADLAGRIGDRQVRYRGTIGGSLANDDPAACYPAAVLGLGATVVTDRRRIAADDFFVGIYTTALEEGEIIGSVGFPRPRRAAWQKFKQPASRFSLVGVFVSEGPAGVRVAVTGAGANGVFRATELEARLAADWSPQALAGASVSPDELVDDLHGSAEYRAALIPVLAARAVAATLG
T1 sequence (I0HW73 1-155 partner): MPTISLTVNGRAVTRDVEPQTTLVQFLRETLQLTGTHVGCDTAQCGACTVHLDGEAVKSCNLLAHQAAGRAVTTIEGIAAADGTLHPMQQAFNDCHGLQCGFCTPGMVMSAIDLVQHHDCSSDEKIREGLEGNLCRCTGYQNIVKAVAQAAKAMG

[2] = biological target: T2, XDH (xanthine dehydrogenase) of R. gelatinosus (Rubrivivax gelatinosus, UniProt I0HWE5); experiment: in-gel NBT reductase activity, native PAGE of soluble fraction; format: biochemical; details: NBT 2 mg/mL as electron acceptor; 50 mM Tris-HCl pH 7.6; room temperature
T2 construct: gene xdhB; native complex of about 250 kDa in soluble fraction, native PAGE band; XdhB 82 kDa, XdhA 54 kDa, XdhC 27 kDa; band absent in xdhB mutant; with Xanthine dehydrogenase, FAD and iron-sulfur subunit XdhA; Xanthine dehydrogenase subunit or accessory protein XdhC
T2 sequence (I0HWE5 1-778): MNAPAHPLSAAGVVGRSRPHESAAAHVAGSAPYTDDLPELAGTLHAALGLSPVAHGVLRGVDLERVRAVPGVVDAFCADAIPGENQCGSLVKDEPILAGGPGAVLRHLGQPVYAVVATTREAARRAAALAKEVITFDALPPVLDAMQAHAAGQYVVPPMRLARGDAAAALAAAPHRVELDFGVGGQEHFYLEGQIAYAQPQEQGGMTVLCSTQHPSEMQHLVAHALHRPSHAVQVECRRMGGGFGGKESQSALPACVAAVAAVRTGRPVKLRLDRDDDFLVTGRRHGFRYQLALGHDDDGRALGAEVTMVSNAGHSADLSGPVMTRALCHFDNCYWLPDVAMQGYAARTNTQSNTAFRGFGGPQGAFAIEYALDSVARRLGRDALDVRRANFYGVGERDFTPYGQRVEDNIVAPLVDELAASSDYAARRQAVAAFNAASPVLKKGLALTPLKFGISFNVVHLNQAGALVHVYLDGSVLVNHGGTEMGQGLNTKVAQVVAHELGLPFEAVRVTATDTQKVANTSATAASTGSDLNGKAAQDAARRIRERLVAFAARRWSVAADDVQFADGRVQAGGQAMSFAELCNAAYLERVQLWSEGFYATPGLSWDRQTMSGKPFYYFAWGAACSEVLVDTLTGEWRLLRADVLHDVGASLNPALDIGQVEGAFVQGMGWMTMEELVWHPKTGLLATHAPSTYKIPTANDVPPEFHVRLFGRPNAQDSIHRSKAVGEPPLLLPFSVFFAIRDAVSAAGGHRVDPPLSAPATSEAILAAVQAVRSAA
T2 sequence (I0HWE6 1-493 partner): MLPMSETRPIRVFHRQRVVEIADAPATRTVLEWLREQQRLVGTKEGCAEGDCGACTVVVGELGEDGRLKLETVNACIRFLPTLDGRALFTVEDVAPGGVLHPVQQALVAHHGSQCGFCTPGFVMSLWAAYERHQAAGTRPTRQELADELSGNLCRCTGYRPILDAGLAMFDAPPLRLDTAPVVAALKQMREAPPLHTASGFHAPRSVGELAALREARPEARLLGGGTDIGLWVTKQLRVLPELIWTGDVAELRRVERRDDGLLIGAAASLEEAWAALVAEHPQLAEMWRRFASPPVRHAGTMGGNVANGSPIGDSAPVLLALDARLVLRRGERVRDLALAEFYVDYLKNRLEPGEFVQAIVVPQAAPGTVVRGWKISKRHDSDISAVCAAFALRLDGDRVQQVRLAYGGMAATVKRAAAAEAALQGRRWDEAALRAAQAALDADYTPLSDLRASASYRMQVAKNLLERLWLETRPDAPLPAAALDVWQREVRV

Row | SMILES | in-gel NBT reductase activity, native PAGE of soluble fraction, no riboflavin [1] | in-gel NBT reductase activity, native PAGE of soluble fraction [2]
1 | COc1cc(-c2ccc(-n3nc(-c4ccccc4)n[n+]3-c3ccc([N+](=O)[O-])cc3)c(OC)c2)ccc1-n1nc(-c2ccccc2)n[n+]1-c1ccc([N+](=O)[O-])cc1 [nitroblue tetrazolium] | able to reduce NBT to NBT-formazan in the absence of riboflavin | –
2 | O=c1[nH]c(=O)c2[nH]cnc2[nH]1 [xanthine] | – | the addition of xanthine to the native PAGE gel revealed a second active band
